US5443986A, “Enzymatic analysis using substrates that yield fluorescent precipitates” (Molecular Probes, Inc., priority 1993, dated 1995)

Assays:
[1] = Critical concentration (Mc) for precipitation of the enzymatic product; format: physicochemical; conditions: product of hydrolysis by excess alkaline phosphatase, 0.1M TRIS pH 10.3
Description: 2D) Critical concentration: Various concentrations of 2-(4'-methoxy-2'-phosphoryloxyphenyl)quinazolinone (3e) were reacted with 50 μL of excess alkaline phosphatase in 200 μL solution of 0.1M TRIS≥pH 10.3 containing 50 mM NaCl, 10 mM MgCl2 and 0.1 mM ZnCl2. The resulting precipitate and fluorescence were measured in a CytoFluor fluorescence plate reader (Millipore) with excitation at 360 nm, emission at 460 nm using sensitivity setting 3.
3). Determination of the critical concentration and pH dependence for the precipitation. The critical concentration (Mc, in units of mmoles) and the pH dependence (pKa) for precipitation are both important parameters for judging the precipitation properties of the enzymatic products obtained from the subject substrates. Below the critical concentration the product will not be detected as a fluorescent precipitate. Obviously these two parameters contribute to the precipitation in a correlated way. As a simple approach, one may define the critical concentration as the concentration necessary for the precipitation at a high pH where all of the phenol group is ionized. Similarly, acidification by lowering the pH results in precipitation at a concentration below the critical concentration that is obtained at high pH to an extent that is related to the pKa of the phenolic group. It is a characteristic of the preferred substrates that only the product precipitate is fluorescent. In this case the precipitate is quantitated by its fluorescence which results in a correlation of the fluorescence with the degree of precipitation.
To obtain the critical concentration for one product the phosphatase substrate (1e) (200 μL) in a 96-well plate is added to 0.1M TRIS, pH 10.3, containing 50 mM NaCl, 10 mM MgCl2 and 0.1 mM ZnCl2 to yield a final concentration of 0.1 to 10 mM. 50 μL of a 1 mg/mL solution of alkaline phosphatase is then added. The fluorescence development is complete after 5 minutes as measured in using a CytoFluor™ 2300 fluorescence plate reader (Millipore, Bedford, Mass.). A concentration showing appreciable fluorescence is determined as the critical concentration.

alkaline phosphatase = alkaline phosphatase (Bos taurus, UniProt P19111); format: biochemical; parameters: mature GPI-type homodimer; conditions: 0.1M TRIS pH 10.3, 50 mM NaCl, 10 mM MgCl2, 0.1 mM ZnCl2; double-reciprocal plot
Description: As compared with other synthetic substrates, the fluorogenic precipitating substrates described in this invention normally have high enzymatic turnover rates and moderate affinities for the enzymes. Turnover rates of the substrates can be determined as in Example 10 and expressed as micromoles of product per minute per milligram protein (k2, in units of μmol·min^-1 ·mg^-1). The affinity of the substrate is determined by its dissociation constant, KM, in millimolar units. The enzymes can bind to and catalyze conversion of the soluble substrates into detectable reaction products that are apparently less soluble and will precipitate in aqueous solutions. The preferred detectable reaction products are fluorescent precipitates. The precipitation, however, and thus fluorescence, depends on the reaction product concentration or the initial substrate concentration used, as well as the ionization state of the product's phenol group. There are two parameters determining the precipitation, i.e. critical concentration (Mc) and pH dependence (pKa). A method for determination of these parameters is given in Example 11. Table 10 gives the relevant parameters for the enzymatic reaction and precipitation of quinazolinone-based alkaline phosphatase substrates.
4). Kinetic assay of some of the substrates. The specific activity (k2, in a unit of micromole per minute per milligram protein) and Michaelis constant (KM, in a unit of millimole) for hydrolysis of the substrates by the enzyme are listed in Table 10. All of the specific enzymatic reactions are made in the following buffers:
For alkaline phosphatase: 0.1M TRIS pH 10.3 containing 50 mM NaCl, 10 mM MgCl2 and 0.1 mM ZnCl2.
Because the kinetic assay involves variable amounts of precipitate with variable light scattering, measurement in the fluorometer as described above cannot be used here. Instead, a fluorescence plate reader with front-face measurement geometry such as the CytoFluor™ 2300 (Millipore, Bedford, Mass.) is preferred for quantitating the precipitate. The following protocol illustrates the kinetic assay.
4.1 ). In a 96-well plate, pipette 200 μL of a phosphatase substrate in the alkaline phosphatase reaction buffer with a final concentration of 2 to 6 mM, then add 50 μL 1 mg/mL alkaline phosphatase. […] Fluorescence of the precipitate is measured in the CytoFluor with appropriate sensitivity and excitation and emission settings as have been determined with the fluorometer. The fluorescence signal versus the amount of the precipitate is then established for each substrate.
4.2). […] Read the fluorescence of the resulting precipitate after 10 minutes reaction time and calculate the precipitate formation rate per minute by use of the determined fluorescence signal versus the amount of the precipitate. […]

Sequence of alkaline phosphatase (P19111 20-506): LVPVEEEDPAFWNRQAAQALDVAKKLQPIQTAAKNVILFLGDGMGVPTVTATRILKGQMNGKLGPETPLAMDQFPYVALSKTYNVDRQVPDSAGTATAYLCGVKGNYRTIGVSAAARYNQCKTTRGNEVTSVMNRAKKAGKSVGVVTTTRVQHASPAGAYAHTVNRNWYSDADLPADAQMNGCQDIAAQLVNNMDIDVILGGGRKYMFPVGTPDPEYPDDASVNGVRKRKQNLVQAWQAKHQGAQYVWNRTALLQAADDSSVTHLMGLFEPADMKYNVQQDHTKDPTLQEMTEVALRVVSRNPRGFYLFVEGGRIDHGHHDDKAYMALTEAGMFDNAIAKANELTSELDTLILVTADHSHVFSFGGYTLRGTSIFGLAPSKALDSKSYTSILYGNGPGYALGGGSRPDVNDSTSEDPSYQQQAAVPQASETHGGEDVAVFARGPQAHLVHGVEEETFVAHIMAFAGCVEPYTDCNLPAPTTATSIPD

Compound: O=c1[nH]c(-c2cc(Cl)ccc2OP(=O)(O)O)nc2ccc(Cl)cc12 [8e, Ammonium 2-(5'-chloro-2'-phosphoryloxyphenyl)-6-chloro-4-(3H)-quinazolinone]
- Mc (critical concentration for precipitation) [1]: 0.1 mM
- k2 (specific activity, turnover rate) (alkaline phosphatase): 618.60 µmol/min/mg
